The values that follow come from US7465753B2, “Glycoside-containing liposome” (Otsuka Pharmaceutical Co., Ltd., priority 2003, dated 2008).

Like-named read-outs stand apart in the source and are kept apart here.

Test [1] has as its system colon26 wild. The test is described as follows: Cell proliferation inhibitory effect, MTT assay, colon26 wild. In kind it is cell-based. The conditions noted are these: glycoside employed alone, 37° C. for three days. As for the experimental part: A cultured cancer cell line (colon26 wild) was inoculated into a 96-well plate (1×10^4 cells/100 μL/well), and subsequently a cholestanol glycoside (GlcNAcβ1,4GalChol, Fucα1,3GalChol, GalβChol, or Chol) or each type of the cholestanol glycoside liposomes formed in Example 1 was added to the 96-well plate, followed by incubation at 37° C. for three days. Thereafter, the MTT assay was performed, and the number of live cells was determined. The cell proliferation inhibition rate was obtained by use of the following formula. Cell proliferation inhibition rate(CPI rate)(%)=(1−OD of treated cells/OD of non-treated cells)×100
In general terms: Tetrazolium dyes change colour on reduction, which living cells bring about.

In test [2] the test system is colon26 wild. The conditions noted are these: glycoside alone; conventionally shown; cited from earlier work.

Consider `CC(C)CCC[C@@H](C)[C@H]1CC[C@H]2[C@@H]3CC[C@H]4C[C@@H](O[C@@H]5O[C@H](CO)[C@H](O)[C@H](O[C@@H]6O[C@@H](C)[C@@H](O)[C@@H](O)[C@@H]6O)[C@H]5O)CC[C@]4(C)[C@H]3CC[C@]12C` [Fucα1,3GalChol, 3-β-cholestanyl 3-O-(α-L-fucopyranosyl)-β-D-galactopyranoside], for which the “cell proliferation inhibitory effect” value in test [1] was “scarcely exhibits cell proliferation inhibitory effect”. As for `CC(=O)N[C@H]1[C@H](O[C@@H]2[C@H](O)[C@@H](O)[C@H](O[C@H]3CC[C@@]4(C)[C@@H](CC[C@@H]5[C@@H]4CC[C@]4(C)[C@@H]([C@H](C)CCCC(C)C)CC[C@@H]54)C3)O[C@@H]2CO)O[C@H](CO)[C@@H](O)[C@@H]1O` [GlcNAcβ1,4GalChol, 3-β-cholestanyl 4-O-(2-acetamido-2-deoxy-β-D-glucopyranosyl)-β-D-galactopyranoside], in test [2], the “cell proliferation inhibitory effect” value was “has conventionally been shown to have cell proliferation inhibitory effect”.
